Data taken from patent publication US20050101668A1, “Aminotetralin derivatives as a medicament for the treatment and prevention of myocardial ischemic conditions” (Chiesi Farmaceutici S.p.A., priority 2003, published 2005).

Assays:
[1] = tested on: isolated perfused rat heart; assay: Creatine kinase (CK) and lactate dehydrogenase (LDH) activities in heart perfusates; details: antagonist alone 1 μM; mU/min/g w.w. vs time 20 to 50 min; mean ± S.E.M.
Protocol: (§1) In brief, the rats were anaesthetized with sodium pentobarbital (60 mg/kg) given by intraperitoneal injection. The chest were opened, and the heart was rapidly excised, and placed in cold (4° C.) heparinized (20 units/ml) Krebs Henseleit solution. […] Coronary perfusion pressure (CPP), left ventricular pressure (LVP) and left ventricular developed pressure (LVDevP; peak left ventricular systolic pressure minus LVEDP) were measured.
(§2) After equilibration of 15 min, hearts were paced at 300 beats/min with an electrical stimulator via two silver electrodes attached to the right atrium and an additional 30 min of perfusion was carried out (pre-ischemic period). Ischemia was induced by reducing the flow rate from 15 ml/min to 1 ml/min for 20 min (ischemic period). A normal flow rate (15 ml/min) was then restored and the perfusion was continued for another 30 min (reperfusion period).
The perfusate, eluted from the heart during pre-ischemic and reperfusion periods, was collected in an ice-cooled beaker as 2.5-min samples collection. Each sample was used for the determination of CK and LDH activities by means of a spectrophotometrical method.

[2] = tested on: isolated perfused rat heart; assay: Isolated perfused rat heart, low flow ischemia/reperfusion: heart mechanics (LVEDP, LVDevP, CPP); details: antagonist alone 1 μM, pre-ischemic period, mean ± S.E.M.
Protocol: as §1, §2

COC(=O)[C@H]1[C@H]2C[C@H]3c4[nH]c5ccccc5c4CCN3C[C@H]2CC[C@@H]1O [Rauwolscine, rauwolscine]
AUC related to CK [1]: 5584 ± 297 | AUC related to LDH [1]: 12988 ± 522 | AUC related to LVEDP ([2]; mm Hg vs time 0 to 50 min): 505 ± 64 | AUC related to CPP ([2]; mm Hg vs time 20 to 50 min): 1680 ± 98 | AUC related to LVDevP ([2]; mm Hg vs time 20 to 50 min): 912 ± 64
